Source: patent US11390603B2, “Crystalline forms of a biphenyl compound” (THERAVANCE BIOPHARMA R&D IP, LLC, priority 2005, dated 2022)

Molecular target: T1, hM3 receptor (Homo sapiens, UniProt P20309)
T1 construct: expressed in transfected cells
Test: Blockade of agonist-mediated calcium release via FLIPR
Type: cell-based
Settings: CHO cells stably expressing the hM3 receptor; this or a similar assay
From the text: Muscarinic receptor subtypes (M1, M3 and M5 receptors), which couple to Gq proteins, activate the phospholipase C (PLC) pathway upon agonist binding to the receptor. As a result, activated PLC hydrolyzes phosphatyl inositol diphosphate (PIP2) to diacylglycerol (DAG) and […] (IP3), which in turn generates calcium release from intracellular stores, i.e., endoplasmic and sarcoplasmic reticulum. The FLIPR (Molecular Devices, Sunnyvale, Calif.) assay capitalizes on this increase in intracellular calcium by using a calcium sensitive dye (Fluo-4AM, Molecular Probes, Eugene, Oreg.) that fluoresces when free calcium binds. This fluorescence event is measured in real time by the FLIPR, which detects the change in fluorescence from a monolayer of cells cloned with human M1 and M3, and chimpanzee M5 receptors. Antagonist potency can be determined by the ability of antagonists to inhibit agonist-mediated increases in intracellular calcium. […]
To determine antagonist potency, the dose-dependent stimulation of intracellular Ca^2+ release for oxotremorine is first determined so that antagonist potency can later be measured against oxotremorine stimulation at an EC90 concentration. […]
The change of fluorescence is expressed as maximum fluorescence minus baseline fluorescence for each well. […]

T1 sequence (P20309 whole entry): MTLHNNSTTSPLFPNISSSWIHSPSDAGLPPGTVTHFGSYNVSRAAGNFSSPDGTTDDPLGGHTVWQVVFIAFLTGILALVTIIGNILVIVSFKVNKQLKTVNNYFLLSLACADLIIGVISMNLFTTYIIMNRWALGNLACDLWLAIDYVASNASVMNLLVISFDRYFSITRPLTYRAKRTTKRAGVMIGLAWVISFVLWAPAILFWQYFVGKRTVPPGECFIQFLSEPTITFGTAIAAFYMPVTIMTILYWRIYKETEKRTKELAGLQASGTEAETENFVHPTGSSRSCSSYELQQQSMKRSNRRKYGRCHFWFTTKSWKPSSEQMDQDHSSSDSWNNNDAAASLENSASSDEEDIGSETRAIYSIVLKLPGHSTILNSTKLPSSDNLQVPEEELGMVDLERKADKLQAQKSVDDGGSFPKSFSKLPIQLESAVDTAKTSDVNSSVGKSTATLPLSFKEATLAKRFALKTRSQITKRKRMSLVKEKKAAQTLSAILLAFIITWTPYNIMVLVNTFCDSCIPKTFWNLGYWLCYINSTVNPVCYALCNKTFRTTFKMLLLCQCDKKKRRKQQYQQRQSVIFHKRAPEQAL

Structure (SMILES): CN(CCN1CCC(OC(=O)Nc2ccccc2-c2ccccc2)CC1)C(=O)c1ccc(CN2CCC(C(N)=O)CC2)cc1 [compound of formula I, biphenyl-2-ylcarbamic acid 1-(2-{[4-(4-carbamoylpiperidin-1-ylmethyl)benzoyl]methylamino}ethyl)piperidin-4-yl ester]
- Ki: < 5 nM
